Experimental findings from ChEMBL document CHEMBL1154214, “Scalarane sesterterpenoids: semisynthesis and biological activity” (J Nat Prod, 2009) are described below.

Molecules are shown by their SMILES.

The subject of one assay is SK-OV-3. Put plainly: Cytotoxicity against human SKOV3 cells after 48 hrs by Neutral red assay. Format: functional, cell-based.
The next assay concerns SK-MEL. Nature of the assay: Cytotoxicity against human SK-MEL cells after 48 hrs by Neutral red assay. It is filed as functional, cell-based.
For a further assay, the system named is BT-549. Nature of the assay: Cytotoxicity against human BT549 cells after 48 hrs by Neutral red assay. It is filed as functional, cell-based.
In a further assay the test system is Vero. Put plainly: Cytotoxicity against african green monkey Vero cells after 48 hrs by Neutral red assay. It is filed as cell-based, Chlorocebus sabaeus.
A further assay concerns Staphylococcus aureus. Put plainly: Antimicrobial activity against methicillin resistant Staphylococcus aureus ATCC 43300. Format: functional, organism-based.
Assay [1] has as its system Mycobacterium intracellulare. Nature of the assay: Antimicrobial activity against […] Mycobacterium intracellular ATCC 23068. It is filed as functional, organism-based.
The mark [2] stands for this setting: Homo sapiens, SK-OV-3, 48 h, read-out: IC50.
The mark [3] stands for this setting: Homo sapiens, BT-549, 48 h, read-out: IC50.
[4] abbreviates: Chlorocebus sabaeus, Vero, 48 h, read-out: IC50.
[5] abbreviates: Mycobacterium intracellulare, ATCC 23068, read-out: IC50.
Setting [6] is: Homo sapiens, SK-MEL, 48 h, read-out: IC50.
Setting [7] is: Staphylococcus aureus, ATCC 43300, read-out: IC50.

As a reminder, the IC50 is the concentration needed to halve the response being measured. In the case of `CC(=O)O[C@@H]1OC=C2[C@@H](OC(C)=O)C[C@H]3[C@]4(C)CC[C@H]5C(C)(C)CCC[C@]5(C)[C@H]4CC(=O)[C@]3(C)[C@H]21`, the half-inhibitory concentration (IC50) is greater than 37.6 µM in the assay on SK-OV-3 (setting [2]); “Not Active” in the assay with SK-MEL (sk-mel); greater than 37.6 µM in the assay with BT-549 (setting [3]); greater than 37.6 µM in the assay with Vero (setting [4]); “Not Active” in the assay on Staphylococcus aureus; 5.1 µM in assay [1] (setting [5]).
Consider `COc1cccc2c1C(=O)c1c(O)c3c(c(O)c1C2=O)C[C@@](O)(C(=O)CO)C[C@@H]3O[C@H]1C[C@H](N)[C@H](O)[C@H](C)O1` [DOXORUBICIN], for which the IC50 in the assay on SK-OV-3 (setting [2]) came out at 0.8 µM; with SK-MEL (setting [6]) it was 1.2 µM; with BT-549 (setting [3]), 1.2 µM; in the assay with Vero (setting [4]) it was 6.3 µM.
In the case of `O=C(O)c1cn(C2CC2)c2cc(N3CCNCC3)c(F)cc2c1=O` [CIPROFLOXACIN], the half-inhibitory concentration (IC50) in the assay with Staphylococcus aureus (setting [7]) is 0.14 µM; in assay [1] (Mycobacterium intracellulare, ATCC 23068) it was 0.47 µM.
As to `CC(=O)O[C@@H]1C[C@@H]2[C@@]3(C)CCCC(C)(C)[C@@H]3CC[C@@]2(C)[C@@H]2CC=C3C(=O)O[C@@H](O)[C@@H]3[C@@]12C`, the 50% inhibitory concentration (IC50) entry (in the assay with SK-OV-3 (sk-ov-3); in the assay with SK-MEL (sk-mel); with BT-549 (bt-549); in the assay with Vero (vero); in the assay with Staphylococcus aureus; in assay [1]) was “Not Active” throughout.
As for `CC(=O)O[C@@H]1OC=C2[C@@H](OC(C)=O)C[C@H]3[C@]4(C)CC[C@H]5C(C)(C)CCC[C@]5(C)[C@H]4C[C@@H](O)[C@]3(C)[C@H]21` [HETERONEMIN], the IC50 is 3.4 µM in the assay with SK-OV-3 (setting [2]); 15.3 µM with SK-MEL (setting [6]); 11.2 µM in the assay on BT-549 (setting [3]); 8.2 µM with Vero (setting [4]); “Not Active” in the assay on Staphylococcus aureus; 2.04 µM in assay [1] (setting [5]).
For the compound `CC1(C)CCC[C@]2(C)[C@H]3CC(=O)[C@]4(C)[C@@H](C=O)C(C=O)=CC[C@H]4[C@]3(C)CC[C@@H]12`, the 50% inhibitory concentration (IC50) is 41.6 µM in the assay on SK-OV-3 (setting [2]); 14.6 µM in the assay with SK-MEL (setting [6]); 15.6 µM with BT-549 (setting [3]); 18.2 µM in the assay on Vero (setting [4]); 27.8 µM in the assay with Staphylococcus aureus (setting [7]); “Not Active” in assay [1].
Turning to `CO[C@@H]1C[C@H]2[C@]3(C)CC[C@H]4C(C)(C)CCC[C@]4(C)[C@H]3C[C@@H](O)[C@]2(C)c2cocc21` [16-O-METHYLSESTERSTATIN 4], the IC50 entry (with SK-OV-3 (sk-ov-3); with SK-MEL (sk-mel); with BT-549 (bt-549); with Vero (vero); in the assay with Staphylococcus aureus; in assay [1]) was “Not Active” in each case.
For the compound `CC(=O)O[C@@H]1OC=C2[C@@H](OC(C)=O)C[C@H]3[C@]4(C)CC[C@H]5C(C)(C)CCC[C@]5(C)[C@H]4C[C@@H](OC(C)=O)[C@]3(C)[C@H]21` [HETERONEMIN ACETATE], the IC50 in the assay on SK-OV-3 (setting [2]) is 18.8 µM; with SK-MEL (setting [6]), 16.7 µM; in the assay with BT-549 (setting [3]) it was 18.8 µM; in the assay on Vero (setting [4]) it was 9 µM; in the assay on Staphylococcus aureus, “Not Active”; in assay [1] (setting [5]), 18.8 µM.
In the case of `CC1(C)CCC[C@]2(C)[C@H]3C[C@@H](O)[C@]4(C)[C@H]5COC(=O)C5=CC[C@H]4[C@]3(C)CC[C@@H]12`, the 50% inhibitory concentration (IC50) entry (with SK-OV-3 (sk-ov-3); in the assay with SK-MEL (sk-mel); in the assay with BT-549 (bt-549); in the assay with Vero (vero); in the assay with Staphylococcus aureus; in assay [1]) was “Not Active” throughout.
On to `CO[C@@H]1O[C@@H](OC)[C@H]2C1=CC[C@H]1[C@]3(C)CC[C@H]4C(C)(C)CCC[C@]4(C)[C@H]3C[C@@H](O)[C@]21C`, for which the concentration for half-maximal inhibition (IC50) result (in the assay on SK-OV-3 (sk-ov-3); in the assay on SK-MEL (sk-mel); in the assay on BT-549 (bt-549); with Vero (vero); in the assay on Staphylococcus aureus; in assay [1]) was “Not Active” throughout.
In the case of `CC1(C)CCC[C@]2(C)[C@H]3C[C@@H](O)[C@]4(C)c5cocc5C=C[C@H]4[C@]3(C)CC[C@@H]12`, the half-inhibitory concentration (IC50) entry (with SK-OV-3 (sk-ov-3); in the assay on SK-MEL (sk-mel); in the assay with BT-549 (bt-549); in the assay with Vero (vero); with Staphylococcus aureus; in assay [1]) was “Not Active” in each case.
Take `CC(=O)O[C@@H]1OCC2[C@@H](OC(C)=O)C[C@H]3[C@]4(C)CC[C@H]5C(C)(C)CCC[C@]5(C)[C@H]4C[C@@H](O)[C@]3(C)[C@H]21` (some centres undefined): the IC50 in the assay with SK-OV-3 (setting [2]) is 18.3 µM; in the assay on SK-MEL (setting [6]), greater than 37.3 µM; with BT-549 (setting [3]), 15.9 µM; with Vero (setting [4]), 36.7 µM; with Staphylococcus aureus, “Not Active”; in assay [1] it was “Not Active”.
Regarding `CC1(C)CCC[C@]2(C)[C@H]3CC(=O)[C@]4(C)[C@H](C=O)C(C=O)=CC[C@H]4[C@]3(C)CC[C@@H]12`, the IC50 in the assay with SK-OV-3 (setting [2]) is 31.2 µM; in the assay with SK-MEL (setting [6]) it was 14.3 µM; in the assay with BT-549 (setting [3]), 15.6 µM; with Vero (setting [4]), 15.6 µM; with Staphylococcus aureus (setting [7]) it was 30.1 µM; in assay [1] it was “Not Active”.
Consider `CC1(C)CCC[C@]2(C)[C@H]3C[C@@H](O)[C@]4(C)c5cocc5[C@@H](O)C[C@H]4[C@]3(C)CC[C@@H]12` [SESTERSTATIN 5], for which the IC50 result (in the assay on SK-OV-3 (sk-ov-3); in the assay on SK-MEL (sk-mel); in the assay on BT-549 (bt-549); in the assay on Vero (vero); in the assay with Staphylococcus aureus; in assay [1]) was “Not Active” in each case.
With `CC1(C)CCC[C@]2(C)[C@H]3C[C@@H](O)[C@]4(C)C(CO)C(CO)=CC[C@H]4[C@]3(C)CC[C@@H]12` (some centres undefined), the 50% inhibitory concentration (IC50) entry (with SK-OV-3 (sk-ov-3); in the assay on SK-MEL (sk-mel); in the assay on BT-549 (bt-549); in the assay with Vero (vero); in the assay on Staphylococcus aureus; in assay [1]) was “Not Active” in each case.
With `CC1(C)CCC[C@]2(C)[C@H]3C[C@@H](O)[C@]4(C)[C@@H](C=O)C(C=O)=CC[C@H]4[C@]3(C)CC[C@@H]12`, the half-maximal inhibitory concentration (IC50) is 31 µM with SK-OV-3 (setting [2]); 26.4 µM with SK-MEL (setting [6]); 19.4 µM in the assay with BT-549 (setting [3]); 19.4 µM with Vero (setting [4]); 22 µM in the assay on Staphylococcus aureus (setting [7]); 38.8 µM in assay [1] (setting [5]).
Take `CC1(C)CCC[C@]2(C)[C@H]3C[C@@H](O)[C@]4(C)[C@H](C=O)C(C=O)=CC[C@H]4[C@]3(C)CC[C@@H]12`: the concentration for half-maximal inhibition (IC50) was 19.4 µM in the assay with SK-OV-3 (setting [2]); 18.6 µM with SK-MEL (setting [6]); 12.9 µM with BT-549 (setting [3]); 20.7 µM with Vero (setting [4]); 3.8 µM in the assay with Staphylococcus aureus (setting [7]); “Not Active” in assay [1].
As for `CC(=O)O[C@H]1C[C@H]2[C@]3(C)CC[C@H]4C(C)(C)CCC[C@]4(C)[C@H]3C[C@@H](O)[C@]2(C)c2cocc21` [SCALARAFURAN], the IC50 result (in the assay with SK-OV-3 (sk-ov-3); with SK-MEL (sk-mel); in the assay with BT-549 (bt-549); in the assay with Vero (vero); in the assay on Staphylococcus aureus; in assay [1]) was “Not Active” throughout.
Turning to `CC(=O)O[C@@H]1C[C@@H]2[C@@]3(C)CCCC(C)(C)[C@@H]3CC[C@@]2(C)[C@@H]2CC=C(C=O)[C@H](C=O)[C@@]12C`, the IC50 in the assay with SK-OV-3 (setting [2]) is 23.3 µM; in the assay with SK-MEL (setting [6]), greater than 42.7 µM; in the assay with BT-549 (setting [3]), 21 µM; in the assay with Vero (setting [4]) it was 22.2 µM; in the assay on Staphylococcus aureus (setting [7]), 6.3 µM; in assay [1], “Not Active”.
Turning to `CO[C@H]1O[C@@H](OC)[C@H]2C1=CC[C@H]1[C@]3(C)CC[C@H]4C(C)(C)CCC[C@]4(C)[C@H]3C[C@@H](O)[C@]21C`, the concentration for half-maximal inhibition (IC50) entry (in the assay with SK-OV-3 (sk-ov-3); with SK-MEL (sk-mel); in the assay on BT-549 (bt-549); in the assay with Vero (vero); with Staphylococcus aureus; in assay [1]) was “Not Active” in each case.
